# Experimental data published in PubChem BioAssay AID192 (DTP/NCI, 2004).
# “And” between values parts separate entries of the source, which are not always exact repeats. Identical values can stand only once. Inconclusive results and toxic doses are left out.
# Test system: BDF1 mice, B16 melanoma ip, median survival T/C
# Assay: NCI In Vivo Anticancer Drug Screen. Data for tumor model B16 Melanoma (intraperitoneal) in B6D2F1 (BDF1) mice
# Settings: endpoint: median survival time, higher = longer survival
# How it was run: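 Mice with transplantable tumors; drug vs vehicle groups; endpoint survival or tumor size; value = T/C.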
# [1] = dose: 12.5 mg/kg/injection, schedule: Q01DX009 (ip), vehicle: Klucel (hydroxypropylcellulose) (HPC)
# [2] = dose: 25.0 mg/kg/injection, schedule: Q01DX009 (ip), vehicle: Klucel (hydroxypropylcellulose) (HPC)
# [3] = dose: 100.0 mg/kg/injection, schedule: Q01DX009 (ip), vehicle: Klucel (hydroxypropylcellulose) (HPC)
# [4] = dose: 6.25 mg/kg/injection, schedule: Q01DX009 (ip), vehicle: saline with Tween-80
# [5] = dose: 200.0 mg/kg/injection, schedule: Q01DX009 (ip), vehicle: Klucel (hydroxypropylcellulose) (HPC)
# [6] = dose: 400.0 mg/kg/injection, schedule: Q01DX009 (ip), vehicle: Klucel (hydroxypropylcellulose) (HPC)
# [7] = dose: 50.0 mg/kg/injection, schedule: Q01DX009 (ip), vehicle: saline
# [8] = dose: 25.0 mg/kg/injection, schedule: Q01DX009 (ip), vehicle: saline with Tween-80
# [9] = dose: 50.0 mg/kg/injection, schedule: Q01DX009 (ip), vehicle: saline with Tween-80
# [10] = dose: 100.0 mg/kg/injection, schedule: Q01DX009 (ip), vehicle: saline with Tween-80
# [11] = dose: 400.0 mg/kg/injection, schedule: Q01DX009 (ip), vehicle: saline with Tween-80
# [12] = dose: 100.0 mg/kg/injection, schedule: Q04DX003 (ip), vehicle: saline with Tween-80
# [13] = dose: 200.0 mg/kg/injection, schedule: Q04DX003 (ip), vehicle: saline with Tween-80
# [14] = dose: 400.0 mg/kg/injection, schedule: Q04DX003 (ip), vehicle: saline with Tween-80
# [15] = dose: 6.25 mg/kg/injection, schedule: Q01DX009 (ip), vehicle: Klucel (hydroxypropylcellulose) (HPC)
# [16] = dose: 1.0 mg/kg/injection, schedule: Q01DX009 (ip), vehicle: saline with Tween-80
# [17] = dose: 2.0 mg/kg/injection, schedule: Q01DX009 (ip), vehicle: saline with Tween-80
smiles,measurement,setting,value
Cn1cnc([N+](=O)[O-])c1S(=O)(=O)NCN1CCOCC1,T/C,[1],98 % of control
same,T/C,[2],96 % of control
same,T/C,"dose: 50.0 mg/kg/injection, schedule: Q01DX009 (ip), vehicle: Klucel (hydroxypropylcellulose) (HPC)",97 % of control
same,T/C,[3],94 % of control
Clc1ccc2nc(CBr)cnc2c1,T/C,"dose: 0.75 mg/kg/injection, schedule: Q01DX009 (ip), vehicle: saline with Tween-80",97 % of control
same,T/C,"dose: 1.5 mg/kg/injection, schedule: Q01DX009 (ip), vehicle: saline with Tween-80",86 % of control
same,T/C,"dose: 3.0 mg/kg/injection, schedule: Q01DX009 (ip), vehicle: saline with Tween-80",97 % of control
same,T/C,"dose: 6.0 mg/kg/injection, schedule: Q01DX009 (ip), vehicle: saline with Tween-80",88 % of control
same,T/C,[4],87 % of control
CCOc1ccc(NC(=O)C=O)cc1,T/C,[3],100 % of control
same,T/C,[5],90 % of control
same,T/C,[6],90 % of control
COc1cccc2c1C(=O)c1c(O)c3c(c(O)c1C2=O)C[C@@](O)(C(=O)CO)C[C@@H]3OC1CC(NC=O)C(O)C(C)O1 (stereo partly drawn),T/C,"dose: 1.56 mg/kg/injection, schedule: Q01DX009 (ip), vehicle: other",118 % of control
same,T/C,"dose: 6.25 mg/kg/injection, schedule: Q01DX009 (ip), vehicle: other",185 % of control
same,T/C,"dose: 12.5 mg/kg/injection, schedule: Q01DX009 (ip), vehicle: other",171 % of control and 203 % of control
same,T/C,"dose: 25.0 mg/kg/injection, schedule: Q01DX009 (ip), vehicle: other",194 % of control
same,T/C,"dose: 50.0 mg/kg/injection, schedule: Q01DX009 (ip), vehicle: other",198 % of control and 259 % of control
same,T/C,"dose: 100.0 mg/kg/injection, schedule: Q01DX009 (ip), vehicle: other",259 % of control
O=S(=O)(O)O.[NH-]CC1(C[NH-])CCCCC1.[Pt+2],T/C,"dose: 8.0 mg/kg/injection, schedule: Q04DX003 (ip), vehicle: dextrose",161 % of control
COC(=O)c1cc([N+](=O)[O-])cc([N+](=O)[O-])c1Br,T/C,"dose: 0.37 mg/kg/injection, schedule: Q01DX009 (ip), vehicle: Klucel (hydroxypropylcellulose) (HPC)",95 % of control
same,T/C,"dose: 0.75 mg/kg/injection, schedule: Q01DX009 (ip), vehicle: Klucel (hydroxypropylcellulose) (HPC)",101 % of control
same,T/C,"dose: 1.5 mg/kg/injection, schedule: Q01DX009 (ip), vehicle: Klucel (hydroxypropylcellulose) (HPC)",88 % of control
NC(CSC(c1ccccc1)(c1ccccc1)c1ccccc1)C(=O)O (stereo not drawn),T/C,"dose: 3.13 mg/kg/injection, schedule: Q01DX009 (ip), vehicle: saline",109 % of control
same,T/C,"dose: 6.25 mg/kg/injection, schedule: Q01DX009 (ip), vehicle: saline",118 % of control
same,T/C,"dose: 12.5 mg/kg/injection, schedule: Q01DX009 (ip), vehicle: saline",120 % of control
same,T/C,[7],150 % of control
O=C(CBr)c1ccc(I)cc1,T/C,"dose: 1.25 mg/kg/injection, schedule: Q01DX009 (ip), vehicle: saline with Tween-80",90 % of control
same,T/C,"dose: 2.5 mg/kg/injection, schedule: Q01DX009 (ip), vehicle: saline with Tween-80",102 % of control
same,T/C,"dose: 5.0 mg/kg/injection, schedule: Q01DX009 (ip), vehicle: saline with Tween-80",95 % of control
same,T/C,"dose: 10.0 mg/kg/injection, schedule: Q01DX009 (ip), vehicle: saline with Tween-80",95 % of control
same,T/C,"dose: 20.0 mg/kg/injection, schedule: Q01DX009 (ip), vehicle: saline with Tween-80",88 % of control
C/C=C1/C[C@@H](C)[C@@](C)(O)C(=O)OCC2=CCN3CC[C@@H](OC1=O)[C@@H]23,T/C,"dose: 10.0 mg/kg/injection, schedule: Q01DX009 (ip), vehicle: saline",110 % of control
same,T/C,"dose: 11.3 mg/kg/injection, schedule: Q01DX009 (ip), vehicle: saline",111 % of control
same,T/C,"dose: 20.0 mg/kg/injection, schedule: Q01DX009 (ip), vehicle: saline",113 % of control
same,T/C,"dose: 22.5 mg/kg/injection, schedule: Q01DX009 (ip), vehicle: saline",285 % of control
same,T/C,"dose: 40.0 mg/kg/injection, schedule: Q01DX009 (ip), vehicle: saline",108 % of control
same,T/C,"dose: 45.0 mg/kg/injection, schedule: Q01DX009 (ip), vehicle: saline",102 % of control
same,T/C,"dose: 80.0 mg/kg/injection, schedule: Q01DX009 (ip), vehicle: saline",108 % of control
same,T/C,"dose: 90.0 mg/kg/injection, schedule: Q01DX009 (ip), vehicle: saline",88 % of control
CNCCN(C)CCN(C)Cc1ccc(OC)cc1,T/C,[7],103 % of control
same,T/C,"dose: 100.0 mg/kg/injection, schedule: Q01DX009 (ip), vehicle: saline",106 % of control
same,T/C,"dose: 200.0 mg/kg/injection, schedule: Q01DX009 (ip), vehicle: saline",106 % of control
Cc1[nH]ccc2c(C)c3nc4ccccc4c3cc12,T/C,[2],161 % of control
CCCCCCCCCCCCCCCCOc1ccccc1C(C)=O,T/C,[8],92 % of control
same,T/C,[9],92 % of control
same,T/C,[10],89 % of control
same,T/C,[11],100 % of control
CC(=O)OCC1OC(n2cnc3c(=S)nc[nH]c32)C(OC(C)=O)C1OC(C)=O (stereo not drawn),T/C,"dose: 50.0 mg/kg/injection, schedule: Q01DX009 (ip), vehicle: suspension in saline",114 % of control
same,T/C,"dose: 100.0 mg/kg/injection, schedule: Q01DX009 (ip), vehicle: suspension in saline",109 % of control
same,T/C,[12],106 % of control
same,T/C,[13],100 % of control
same,T/C,[14],91 % of control
Cc1cc(=O)[nH]c(Nc2ccccc2)n1,T/C,[10],105 % of control
same,T/C,"dose: 200.0 mg/kg/injection, schedule: Q01DX009 (ip), vehicle: saline with Tween-80",92 % of control
same,T/C,[11],102 % of control
COc1cc2c(cc1OC)C(C#N)C2 (stereo not drawn),T/C,[15],105 % of control
same,T/C,[1],97 % of control and 102 % of control
same,T/C,[2],111 % of control
COc1ccc(C(C)=O)cc1N,T/C,"dose: 100.0 mg/kg/injection, schedule: Q04DX003 (ip), vehicle: Klucel (hydroxypropylcellulose) (HPC)",100 % of control
same,T/C,"dose: 200.0 mg/kg/injection, schedule: Q04DX003 (ip), vehicle: Klucel (hydroxypropylcellulose) (HPC)",97 % of control
same,T/C,"dose: 400.0 mg/kg/injection, schedule: Q04DX003 (ip), vehicle: Klucel (hydroxypropylcellulose) (HPC)",95 % of control
CCCCC(CCCC)c1ccccn1,T/C,[4],104 % of control
same,T/C,"dose: 12.5 mg/kg/injection, schedule: Q01DX009 (ip), vehicle: saline with Tween-80",108 % of control
same,T/C,[8],102 % of control
CN(C)C=NC1CCC(C(C)(C)C)CC1 (stereo not drawn),T/C,[15],89 % of control
same,T/C,[1],93 % of control
same,T/C,[2],86 % of control
COc1ccc(CC2C(=O)NC(C)C(=O)N(C)C3C(=O)N(C)C(Cc4ccc(O)c(c4)Oc4ccc(cc4)C3O)C(=O)NC(C)C(=O)NC(C)C(=O)N2C)cc1 (stereo not drawn) (tested in a mixture with another compound),T/C,"dose: 0.12 mg/kg/injection, schedule: Q01DX009 (ip), vehicle: other",97 % of control
same,T/C,"dose: 0.25 mg/kg/injection, schedule: Q01DX009 (ip), vehicle: other",109 % of control
same,T/C,"dose: 0.5 mg/kg/injection, schedule: Q01DX009 (ip), vehicle: other",161 % of control
same,T/C,"dose: 1.0 mg/kg/injection, schedule: Q01DX009 (ip), vehicle: other",152 % of control
same,T/C,[16],154 % of control
same,T/C,[17],157 % of control
same,T/C,"dose: 250.0 micrograms/kg/injection, schedule: Q01DX009 (ip), vehicle: saline",152 % of control
same,T/C,"dose: 2000.0 micrograms/kg/injection, schedule: Q01DX009 (ip), vehicle: saline",154 % of control
COc1c2ccoc2c(OCC=C(C)C)c2oc(=O)ccc12,T/C,[12],94 % of control
same,T/C,[13],105 % of control
same,T/C,[14],97 % of control
Nc1nc(=S)c2ncn(C3OC(CO)C(O)C3O)c2[nH]1 (stereo not drawn),T/C,"dose: 0.5 mg/kg/injection, schedule: Q01DX009 (ip), vehicle: saline with Tween-80",109 % of control
same,T/C,"dose: 1.0 mg/kg/injection, schedule: Q01DX009 (ip), vehicle: saline sonified",106 % of control
same,T/C,[16],122 % of control
same,T/C,"dose: 2.0 mg/kg/injection, schedule: Q01DX009 (ip), vehicle: saline sonified",102 % of control
same,T/C,[17],113 % of control
CCCCCCCCC(O)CCCCC (stereo not drawn),T/C,[3],100 % of control
same,T/C,[5],94 % of control
same,T/C,[6],98 % of control
CC(C)c1ccc(C(O)C2CC2)cc1 (stereo not drawn),T/C,[9],110 % of control
same,T/C,[10],102 % of control
